From the NIST ThermoML archive (doi:10.1016/j.jct.2005.12.006)
Values joined by “and” are separate entries in the source; they are usually repeats but may differ in a detail not shown here. Equal entries are not always repeated. ± gives the expanded uncertainty stated by the source.

Assay: excess molar enthalpy (molar enthalpy of mixing); xn = mol fraction of the nth substance listed
Details: 298.15 K, 101 kPa, Liquid, Flow calorimetry

CCCCCCCCN(CCCCCCCC)CCCCCCCC [trioctylamine] + CCCCO
excess molar enthalpy (x2 = 0.0623): 0.0383 ± 0.00124 kcal/mol | excess molar enthalpy (x2 = 0.1246): 0.053 ± 0.00167 kcal/mol | excess molar enthalpy (x2 = 0.1877): 0.0618 ± 0.00196 kcal/mol | excess molar enthalpy (x2 = 0.2503): 0.0668 ± 0.0021 kcal/mol | excess molar enthalpy (x2 = 0.3122): 0.0689 ± 0.00217 kcal/mol | excess molar enthalpy (x2 = 0.3747): 0.0696 ± 0.0022 kcal/mol | excess molar enthalpy (x2 = 0.4373): 0.0682 ± 0.00215 kcal/mol | excess molar enthalpy (x2 = 0.5): 0.0651 ± 0.00206 kcal/mol | excess molar enthalpy (x2 = 0.5625): 0.0615 ± 0.00194 kcal/mol | excess molar enthalpy (x2 = 0.6251): 0.0558 ± 0.00177 kcal/mol | excess molar enthalpy (x2 = 0.6876): 0.0467 ± 0.00148 kcal/mol | excess molar enthalpy (x2 = 0.7501): 0.0353 ± 0.00115 kcal/mol | excess molar enthalpy (x2 = 0.8125): 0.0241 ± 0.000789 kcal/mol | excess molar enthalpy (x2 = 0.875): 0.0152 kcal/mol and 0.015 kcal/mol | excess molar enthalpy (x2 = 0.9375): 0.00612 ± 0.000526 kcal/mol

CCCCN(CCCC)CCCC [tributylamine] + CCCCO
excess molar enthalpy (x2 = 0.0505): 0.00913 ± 0.000526 kcal/mol | excess molar enthalpy (x2 = 0.1006): 0.0104 ± 0.000526 kcal/mol | excess molar enthalpy (x2 = 0.1507): 0.00648 ± 0.000526 kcal/mol | excess molar enthalpy (x2 = 0.2009): 0.00115 ± 0.000502 kcal/mol | excess molar enthalpy (x2 = 0.2511): -0.00574 ± 0.000526 kcal/mol | excess molar enthalpy (x2 = 0.3013): -0.0113 ± 0.00055 kcal/mol | excess molar enthalpy (x2 = 0.3519): -0.0181 ± 0.000621 kcal/mol | excess molar enthalpy (x2 = 0.4018): -0.024 ± 0.000789 kcal/mol | excess molar enthalpy (x2 = 0.4514): -0.0301 ± 0.00098 kcal/mol | excess molar enthalpy (x2 = 0.5014): -0.0352 ± 0.00115 kcal/mol | excess molar enthalpy (x2 = 0.5513): -0.0402 ± 0.00129 kcal/mol | excess molar enthalpy (x2 = 0.6014): -0.0439 ± 0.00141 kcal/mol | excess molar enthalpy (x2 = 0.6512): -0.0471 ± 0.00151 kcal/mol | excess molar enthalpy (x2 = 0.7011): -0.0489 ± 0.00155 kcal/mol | excess molar enthalpy (x2 = 0.7517): -0.0498 ± 0.00158 kcal/mol | excess molar enthalpy (x2 = 0.8013): -0.0491 ± 0.00155 kcal/mol | excess molar enthalpy (x2 = 0.8514): -0.0465 ± 0.00148 kcal/mol | excess molar enthalpy (x2 = 0.9004): -0.0403 ± 0.00129 kcal/mol | excess molar enthalpy (x2 = 0.9503): -0.0274 ± 0.000908 kcal/mol | excess molar enthalpy (x2 = 0.9698): -0.0182 ± 0.000645 kcal/mol | excess molar enthalpy (x2 = 0.9853): -0.0055 ± 0.00055 kcal/mol

CCCCN(CCCC)CCCC [tributylamine] + CCCCCC
excess molar enthalpy (x1 = 0.05): -0.00112 ± 0.000502 kcal/mol | excess molar enthalpy (x1 = 0.0995): -0.00182 ± 0.000502 kcal/mol | excess molar enthalpy (x1 = 0.1495): -0.0022 ± 0.000502 kcal/mol | excess molar enthalpy (x1 = 0.1997): -0.0022 ± 0.000502 kcal/mol | excess molar enthalpy (x1 = 0.2498): -0.0021 ± 0.000502 kcal/mol | excess molar enthalpy (x1 = 0.2992): -0.00189 ± 0.000502 kcal/mol | excess molar enthalpy (x1 = 0.3498): -0.00167 ± 0.000502 kcal/mol | excess molar enthalpy (x1 = 0.3991): -0.00143 ± 0.000502 kcal/mol | excess molar enthalpy (x1 = 0.449): -0.00122 ± 0.000502 kcal/mol | excess molar enthalpy (x1 = 0.4993): -0.00103 ± 0.000502 kcal/mol | excess molar enthalpy (x1 = 0.5488): -0.000837 ± 0.000502 kcal/mol | excess molar enthalpy (x1 = 0.599): -0.000645 ± 0.000502 kcal/mol | excess molar enthalpy (x1 = 0.6492): -0.000502 ± 0.000502 kcal/mol | excess molar enthalpy (x1 = 0.6989): -0.000382 ± 0.000502 kcal/mol | excess molar enthalpy (x1 = 0.7495): -0.000311 ± 0.000502 kcal/mol | excess molar enthalpy (x1 = 0.7991): -0.000239 ± 0.000502 kcal/mol | excess molar enthalpy (x1 = 0.8497): -0.000191 ± 0.000502 kcal/mol | excess molar enthalpy (x1 = 0.9): -0.000143 ± 0.000502 kcal/mol | excess molar enthalpy (x1 = 0.9501): -9.56e-05 ± 0.000502 kcal/mol

CCCCCCCCN(CCCCCCCC)CCCCCCCC [trioctylamine] + CCCCCC
excess molar enthalpy (x1 = 0.0312): -0.00115 kcal/mol and -0.00117 kcal/mol and -0.0012 kcal/mol | excess molar enthalpy (x1 = 0.0625): -0.0021 kcal/mol and -0.00217 kcal/mol and -0.00208 kcal/mol | excess molar enthalpy (x1 = 0.0938): -0.00249 ± 0.000502 kcal/mol | excess molar enthalpy (x1 = 0.125): -0.00294 kcal/mol and -0.00277 kcal/mol | excess molar enthalpy (x1 = 0.1875): -0.00301 kcal/mol and -0.00308 kcal/mol | excess molar enthalpy (x1 = 0.25): -0.00263 kcal/mol and -0.00253 kcal/mol | excess molar enthalpy (x1 = 0.3125): -0.00213 ± 0.000502 kcal/mol | excess molar enthalpy (x1 = 0.375): -0.00179 ± 0.000502 kcal/mol | excess molar enthalpy (x1 = 0.4375): -0.00155 ± 0.000502 kcal/mol | excess molar enthalpy (x1 = 0.4999): -0.00127 ± 0.000502 kcal/mol | excess molar enthalpy (x1 = 0.5625): -0.00098 ± 0.000502 kcal/mol | excess molar enthalpy (x1 = 0.6249): -0.000669 ± 0.000502 kcal/mol | excess molar enthalpy (x1 = 0.625): -0.000693 ± 0.000502 kcal/mol | excess molar enthalpy (x1 = 0.6873): -0.000526 ± 0.000502 kcal/mol | excess molar enthalpy (x1 = 0.75): -0.000406 ± 0.000502 kcal/mol | excess molar enthalpy (x1 = 0.8124): -0.000215 kcal/mol and -0.000167 kcal/mol | excess molar enthalpy (x1 = 0.8749): -9.56e-05 ± 0.000502 kcal/mol | excess molar enthalpy (x1 = 0.875): -2.39e-05 kcal/mol | excess molar enthalpy (x1 = 0.9374): -4.78e-05 kcal/mol

CCCCCC [hexane] + CCCCO
excess molar enthalpy (x2 = 0.2065): 0.128 ± 0.00406 kcal/mol | excess molar enthalpy (x2 = 0.2516): 0.129 ± 0.00406 kcal/mol | excess molar enthalpy (x2 = 0.405): 0.133 ± 0.00406 kcal/mol | excess molar enthalpy (x2 = 0.5028): 0.12 ± 0.00382 kcal/mol | excess molar enthalpy (x2 = 0.6056): 0.105 ± 0.00335 kcal/mol | excess molar enthalpy (x2 = 0.7505): 0.0658 ± 0.00208 kcal/mol | excess molar enthalpy (x2 = 0.8055): 0.0521 ± 0.00165 kcal/mol
